Data from US20180221371A1, “TREATMENT FOR THE FETUS WITH CONGENITAL HEART DISEASE” (CHILDREN'S NATIONAL MEDICAL CENTER, priority 2015, published 2018).
“Also recorded” adds a separate entry of the source.

Tests used:
[1] = test system: oligodendrocytes (CNP positive cells); assay: Oligodendrocyte density (CNP positive cells) in white matter, mouse model of chronic hypoxia; assay type: in vivo, mice; settings: Hx-BH4 vs Hx; 10.5% FiO2 postnatal day 3 to 11; n=3-6 each
Text: (§1) FIG. 3. Correspondence between human and rodent gestation periods. Regarding WM development, postnatal days 3-11 in mice correspond to the 3rd trimester of human pregnancy. The murine model was used by the inventors to investigate the effects of hypoxia and treatment of hypoxia by BH4. A mouse model of chronic hypoxia during a period that corresponds to the 3rd trimester in human white matter development is described by […], et al ^47 and by Raymond, et al. ^48, both of which are incorporated by reference. Three groups of mice: Normoxic controls (Nx), Hypoxic (Hx), Hypoxic treated with BH4 (Hx-BH4). Hx and Hx-BH4 mice were kept at 10.5% FiO2 from postnatal day 3 to 11-a period of WM development equivalent to the 3rd trimester in humans as illustrated by FIG. 3. BH4 brain levels were quantified and compared between Nx (n=11) and Hx (n=12). Densities of cells expressing CNP, a marker of oligodendrocytes which are cells responsible for myelination, and Caspase3, an apoptosis marker, were compared between all groups (n=3-6 each). Expression of myelin basic protean, a myelination marker, was quantified using Western Blot (n=7-12 each).

[2] = test system: apoptotic cells (Caspase3 positive); assay: Apoptotic cell density (Caspase3 positive) in white matter, mouse model of chronic hypoxia; assay type: in vivo, mice
Text: as §1

Myelin Basic Protein = assay: Expression of myelin basic protein (Western blot, immunohistochemistry), mouse model of chronic hypoxia; assay type: in vivo, mice
Text: as §1

[3] = cited from earlier work
[4] = in vivo; cited from earlier work
WM integrity and damage = settings: in vivo; cited from earlier work

## C[C@H](O)[C@H](O)[C@H]1CNc2nc(N)[nH]c(=O)c2N1 [BH4, Tetrahydrobiopterin]
[1]
  Effect of BH4 treatment on hypoxia-induced increase of oligodendrocyte density: not limited by BH4 therapy; also recorded: did not limit this effect
[2]; Hx-BH4 vs Hx, p=0.01, 10.5% FiO2 postnatal day 3 to 11, n=3-6 each
  Effect of BH4 treatment on hypoxia-increased WM apoptosis (apoptotic cell density): mitigate this effect; also recorded: decreased with BH4 treatment
[2]; Hx-BH4 vs Nx
  Apoptotic cell density, Hx-BH4 compared with normoxic controls: no difference in apoptotic cell density between Nx and Hx-BH4
Myelin Basic Protein; Hx-BH4 vs Hx, p=0.006, 10.5% FiO2 postnatal day 3 to 11, n=7-12 each
  Effect of BH4 treatment on hypoxia-decreased expression of myelin basic protein: mitigated by BH4 therapy; also recorded: increased with BH4 treatment
Myelin Basic Protein; Hx-BH4 vs Nx
  Expression of myelin basic protein, Hx-BH4 compared with normoxic controls: no significant difference between normoxic controls (Nx) and hypoxic mice treated with BH4 (Hx-BH4)
[3]; humans, wide range of doses
  Safety and tolerability in long-term follow-up studies: safe and well tolerated
[3]; in vivo
  Teratological effects: no teratological effects have been documented
[3]; recent trials
  Maternal BH4 treatment in pregnant females: efficient and safe
[4]
  Placental crossing and fetal tissue distribution: crosses the placenta and distributes throughout fetal tissues, including the brain
WM integrity and damage
  WM integrity and damage in children with phenylketonuria treated early: Improvements of WM integrity and damage
